Assays:
Test in all cases: relative viability (nuclei count vs DMSO), 5 days (fraction); higher = more cells survive
SK-LU-1 = test system: SK-LU-1
How it was run: (§1)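 Lung cancer cell lines, seeded in 1536-well plates, were treated the following day by pin tool with a single drug or with five library-drug doses (not always all listed) in √10 steps on top of a fixed anchor-drug dose. Cells were fixed and nuclei stained in one step after 5 days, and nuclei were counted. Relative viability is the nuclei count for treated wells divided by that for vehicle wells, reported as medians of duplicate plates.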

PC-3 [JPC-3] = test system: PC-3 [JPC-3]
How it was run: as §1

NCI-H1793 = test system: NCI-H1793
How it was run: as §1

SW 1573 = test system: SW 1573
How it was run: as §1

A-427 = test system: A-427
How it was run: as §1

LU99A = test system: LU99A
How it was run: as §1

NCI-H1792 = test system: NCI-H1792
How it was run: as §1

LXF-289 = test system: LXF-289
How it was run: as §1

COR-L23 = test system: COR-L23
How it was run: as §1

NCI-H2170 = test system: NCI-H2170
How it was run: as §1

ABC-1 = test system: ABC-1
How it was run: as §1

NCI-H1944 = test system: NCI-H1944
How it was run: as §1

EMC-BAC-2 = test system: EMC-BAC-2
How it was run: as §1

NCI-H727 = test system: NCI-H727
How it was run: as §1

NCI-H2009 = test system: NCI-H2009
How it was run: as §1

NCI-H596 = test system: NCI-H596
How it was run: as §1

NCI-H2228 = test system: NCI-H2228
How it was run: as §1

LK-2 = test system: LK-2
How it was run: as §1

NCI-H3122 = test system: NCI-H3122
How it was run: as §1

HOP-62 = test system: HOP-62
How it was run: as §1

SK-MES-1 = test system: SK-MES-1
How it was run: as §1

HARA = test system: HARA
How it was run: as §1

NCI-H1993 = test system: NCI-H1993
How it was run: as §1

In the case of `Clc1ccc(Nc2nnc(Cc3ccncc3)c3ccccc23)cc1` [Vatalanib] + Cc1nc(NC(=O)N2CCC[C@H]2C(N)=O)sc1-c1ccnc(C(C)(C)C(F)(F)F)c1 [Alpelisib] (partner 2 µM), the relative viability (SK-LU-1; first compound 0.04 µM) is reported as 1.09, the relative viability (SK-LU-1; first compound 0.1265 µM) is reported as 0.983 and the relative viability (SK-LU-1; first compound 0.4 µM) is reported as 1.31. It also gave a relative viability (SK-LU-1; first compound 1.265 µM) of 1.02, a relative viability (SK-LU-1; first compound 4 µM) of 1.04 and a relative viability (PC-3 [JPC-3]; first compound 0.04 µM) of 1.01. For the same molecule, the relative viability (PC-3 [JPC-3]; first compound 0.1265 µM) was 0.972, the relative viability (PC-3 [JPC-3]; first compound 0.4 µM) was 1.01 and the relative viability (PC-3 [JPC-3]; first compound 1.265 µM) was 0.941. The relative viability (PC-3 [JPC-3]; first compound 4 µM) was 1.01, the relative viability (NCI-H1793; first compound 0.04 µM) was 0.554 and the relative viability (NCI-H1793; first compound 0.1265 µM) was 0.659. It also gave a relative viability (NCI-H1793; first compound 0.4 µM) of 0.569, a relative viability (NCI-H1793; first compound 1.265 µM) of 0.635 and a relative viability (NCI-H1793; first compound 4 µM) of 0.647. It also gave a relative viability (SW 1573; first compound 0.04 µM) of 0.75, a relative viability (SW 1573; first compound 0.1265 µM) of 0.598 and a relative viability (SW 1573; first compound 0.4 µM) of 0.749. For the same molecule, the relative viability (SW 1573; first compound 1.265 µM) was 0.79, the relative viability (SW 1573; first compound 4 µM) was 0.667 and the relative viability (A-427; first compound 0.04 µM) was 0.988. It also gave a relative viability (A-427; first compound 0.1265 µM) of 1.06, a relative viability (A-427; first compound 0.4 µM) of 1.13 and a relative viability (A-427; first compound 1.265 µM) of 1.11. The relative viability (A-427; first compound 4 µM) was 1.08, the relative viability (LU99A; first compound 0.04 µM) was 0.541 and the relative viability (LU99A; first compound 0.1265 µM) was 0.514. It also gave a relative viability (LU99A; first compound 0.4 µM) of 0.531, a relative viability (LU99A; first compound 1.265 µM) of 0.503 and a relative viability (LU99A; first compound 4 µM) of 0.575. It also gave a relative viability (NCI-H1792; first compound 0.04 µM) of 0.669, a relative viability (NCI-H1792; first compound 0.1265 µM) of 0.741 and a relative viability (NCI-H1792; first compound 0.4 µM) of 0.639. The relative viability (NCI-H1792; first compound 1.265 µM) was 0.677, the relative viability (NCI-H1792; first compound 4 µM) was 0.73 and the relative viability (LXF-289; first compound 0.04 µM) was 1.08. For the same molecule, the relative viability (LXF-289; first compound 0.1265 µM) was 1.01, the relative viability (LXF-289; first compound 0.4 µM) was 1.06 and the relative viability (LXF-289; first compound 1.265 µM) was 0.964. The relative viability (LXF-289; first compound 4 µM) was 0.995, the relative viability (COR-L23; first compound 0.04 µM) was 0.769 and the relative viability (COR-L23; first compound 0.1265 µM) was 0.75. For the same molecule, the relative viability (COR-L23; first compound 0.4 µM) was 1.07, the relative viability (COR-L23; first compound 1.265 µM) was 0.665 and the relative viability (COR-L23; first compound 4 µM) was 0.739. The relative viability (NCI-H2170; first compound 0.04 µM) was 0.86, the relative viability (NCI-H2170; first compound 0.1265 µM) was 0.777 and the relative viability (NCI-H2170; first compound 0.4 µM) was 0.861. For the same molecule, the relative viability (NCI-H2170; first compound 1.265 µM) was 0.81, the relative viability (NCI-H2170; first compound 4 µM) was 0.811 and the relative viability (ABC-1; first compound 0.04 µM) was 1. For the same molecule, the relative viability (ABC-1; first compound 0.1265 µM) was 0.936, the relative viability (ABC-1; first compound 0.4 µM) was 1.2 and the relative viability (ABC-1; first compound 1.265 µM) was 0.853. It also gave a relative viability (ABC-1; first compound 4 µM) of 0.926, a relative viability (NCI-H1944; first compound 0.04 µM) of 0.888 and a relative viability (NCI-H1944; first compound 0.1265 µM) of 0.706. The relative viability (NCI-H1944; first compound 0.4 µM) was 0.833, the relative viability (NCI-H1944; first compound 1.265 µM) was 0.808 and the relative viability (NCI-H1944; first compound 4 µM) was 0.864. For the same molecule, the relative viability (EMC-BAC-2; first compound 0.04 µM) was 0.714, the relative viability (EMC-BAC-2; first compound 0.1265 µM) was 0.714 and the relative viability (EMC-BAC-2; first compound 0.4 µM) was 0.72. For the same molecule, the relative viability (EMC-BAC-2; first compound 1.265 µM) was 0.74, the relative viability (EMC-BAC-2; first compound 4 µM) was 0.729 and the relative viability (NCI-H727; first compound 0.04 µM) was 0.463. It also gave a relative viability (NCI-H727; first compound 0.1265 µM) of 0.528, a relative viability (NCI-H727; first compound 0.4 µM) of 0.666 and a relative viability (NCI-H727; first compound 1.265 µM) of 0.397. For the same molecule, the relative viability (NCI-H727; first compound 4 µM) was 0.566, the relative viability (NCI-H2009; first compound 0.04 µM) was 1.14 and the relative viability (NCI-H2009; first compound 0.1265 µM) was 1.07. The relative viability (NCI-H2009; first compound 0.4 µM) was 1.2, the relative viability (NCI-H2009; first compound 1.265 µM) was 1.13 and the relative viability (NCI-H2009; first compound 4 µM) was 1.22. The relative viability (NCI-H596; first compound 0.04 µM) was 0.503, the relative viability (NCI-H596; first compound 0.1265 µM) was 0.499 and the relative viability (NCI-H596; first compound 0.4 µM) was 0.498. The relative viability (NCI-H596; first compound 1.265 µM) was 0.53, the relative viability (NCI-H596; first compound 4 µM) was 0.511 and the relative viability (NCI-H2228; first compound 0.04 µM) was 0.691. The relative viability (NCI-H2228; first compound 0.1265 µM) was 0.728, the relative viability (NCI-H2228; first compound 0.4 µM) was 0.867 and the relative viability (NCI-H2228; first compound 1.265 µM) was 0.713. The relative viability (NCI-H2228; first compound 4 µM) was 0.637, the relative viability (LK-2; first compound 0.04 µM) was 0.951 and the relative viability (LK-2; first compound 0.1265 µM) was 0.999. For the same molecule, the relative viability (LK-2; first compound 1.265 µM) was 1.07, the relative viability (LK-2; first compound 4 µM) was 1.24 and the relative viability (NCI-H3122; first compound 0.04 µM) was 0.779. For the same molecule, the relative viability (NCI-H3122; first compound 0.1265 µM) was 0.742, the relative viability (NCI-H3122; first compound 0.4 µM) was 0.799 and the relative viability (NCI-H3122; first compound 1.265 µM) was 0.93. For the same molecule, the relative viability (NCI-H3122; first compound 4 µM) was 0.906, the relative viability (HOP-62; first compound 0.04 µM) was 0.981 and the relative viability (HOP-62; first compound 0.4 µM) was 1.07. For the same molecule, the relative viability (HOP-62; first compound 1.265 µM) was 1.12, the relative viability (HOP-62; first compound 4 µM) was 0.855 and the relative viability (SK-MES-1; first compound 0.04 µM) was 1.11. For the same molecule, the relative viability (SK-MES-1; first compound 0.1265 µM) was 0.849, the relative viability (SK-MES-1; first compound 0.4 µM) was 0.912 and the relative viability (SK-MES-1; first compound 1.265 µM) was 0.807. The relative viability (SK-MES-1; first compound 4 µM) was 0.868, the relative viability (HARA; first compound 0.04 µM) was 0.738 and the relative viability (HARA; first compound 0.1265 µM) was 0.869. For the same molecule, the relative viability (HARA; first compound 0.4 µM) was 0.761, the relative viability (HARA; first compound 1.265 µM) was 0.831 and the relative viability (HARA; first compound 4 µM) was 0.808. It also gave a relative viability (NCI-H1993; first compound 0.04 µM) of 0.581, a relative viability (NCI-H1993; first compound 0.1265 µM) of 0.68 and a relative viability (NCI-H1993; first compound 0.4 µM) of 0.678. The relative viability (NCI-H1993; first compound 1.265 µM) was 0.634 and the relative viability (NCI-H1993; first compound 4 µM) was 0.707.
